Source: US7199113B2, “Pharmaceutically active compounds and methods of use thereof” (priority 1998, dated 2007)

Legend:
Assay type in all cases: biochemical
FXa = biological target: T1, FXa (Homo sapiens, UniProt P00742); experiment: FXa activity assay; conditions: statement on Table 1 (FIG. 2(a))
T1 construct: FX is converted to FXa by TF/VIIa complex in the absence of any compound; purchased Enzyme Research Laboratories Inc
Protocol: FX is converted to FXa by TF/VIIa complex in the absence of any compound. To do that, 54 μl of TF/VIIa (50 nM) was added to 27 ml of buffer in a 50-ml tube. Then 6 ml of FX (180 nM) was added and incubated at 37° C. for 15 minutes. Six ml of EDTA was added to stop FX activation. Five μl of compound or DMSO was placed in each well of a 96-well plate in duplicate, then 65 μl of FXa generated above was added to each well and mixed. After incubation for 15 minutes at 37° C., 10 μl of FXa substrate Spectrozyme FXa was added and incubated for 20 minutes at 37° C. Absorbance at 405 nm was then measured following addition of 20 μl of 50% acetic acid. The percent inhibition of FXa activity was calculated from OD405 nm values in the absence and presence of a compound.

trypsin = experiment: Trypsin activity assay; conditions: statement on Table 1 (FIG. 2(a))
Protocol: For trypsin activity assay, 4 μl of trypsin (100 nM) was first mixed with 61 μl of buffer, 5 μl of DMSO or 5 μl of compound (in DMSO), followed by 15 minute incubation at 37° C. Then 10 μl of substrate S-2222 (4.8 mM) was added to start the reaction. After a 15 minute incubation at 37° C., 20 μl of 50% acetic acid was added to quench the reaction. Absorbance at 405 nm was then measured and the percent inhibition of trypsin activity was calculated from OD405 nm values in the absence and presence of a compound.

TF/VIIa complex = biological target: T2, TF/VIIa complex (Homo sapiens, UniProt P13726); experiment: TF/VIIa-dependent FIX activation assay; conditions: for blocking activity in standard assay for TF/VIIa-dependent factor IX activation: statement on FIG. 3; for inhibition of TF/VIIa-dependent FIX activation: statement on Table 4 (FIG. 2(d))
T2 construct: Truncated recombinant human tissue factor (e.g. composed of 243 amino acids) is expressed in E. coli; host or cells: E. coli (TF)
Protocol: In a more particular embodiment, the standard assay preferably includes the following steps: • 1) admixing in a suitable assay solution about 0.7 nM TF/VIIa complex with 300 nM factor IX and 1000 nM factor X, and from between about 0.5 μl to about 10 μl of at least one compound to be tested (optionally dissolved in an appropriate vehicle such as water or dimethylsulfoxide (DMSO)) and incubating the solution at 37° C. from between about a few minutes up to about an hour under conditions suitable for forming FIXa and FXa; • 2) contacting the solution with a suitable chelating agent such as EDTA to stop FIX activation; • 3) contacting the solution with a chromogenic substrate specific for the FXa (e.g., Spectrozyme FXa) and incubating same at 37° C.; and • 4) detecting chromophore in the solution as being indicative of the factor IX activation.
TF/VIIa is not only able to activate FX, but is also able to convert FIX to FIXa. To examine whether the two antagonists 1 and 2 were able to block FIX activation catalyzed by TF/VIIa. FIX activation experiment was conducted. To each well of a 96-well plate, 5 μl of diluted DMSO or compound was added, followed by 45 μl of TF/VIIa (0.67 nM). After mixing and incubating for 15 minutes at 37° C., 10 μl of FIX (300 nM) was added and incubated for 10 minutes at 37° C. 10 μl of EDTA ([…] in 144 mM HEPES, […], 0.576% BSA, pH adjusted to 7.5) was added, followed by addition of 10 μl of FX (1000 nM), 10 μl of polylysine, and 10 μl of Spectrozyme FXa (6 mM). After 3 hour incubation at 37° C., absorbance at 405 nm was measured following addition of 20 μl of 50% acetic acid. The percent inhibition of TF/VIIa-dependent FIX activation was calculated from OD405 nm values in the absence and presence of a compound.

T2 sequence (P13726 33-275 limits assumed): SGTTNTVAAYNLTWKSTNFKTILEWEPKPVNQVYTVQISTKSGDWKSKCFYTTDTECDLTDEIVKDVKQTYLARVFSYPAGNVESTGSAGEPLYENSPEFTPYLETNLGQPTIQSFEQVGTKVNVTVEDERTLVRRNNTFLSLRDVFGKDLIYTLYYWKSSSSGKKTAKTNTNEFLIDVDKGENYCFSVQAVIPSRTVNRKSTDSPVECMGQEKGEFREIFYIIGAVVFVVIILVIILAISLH
T2 sequence (P08709 61-212 partner limits assumed): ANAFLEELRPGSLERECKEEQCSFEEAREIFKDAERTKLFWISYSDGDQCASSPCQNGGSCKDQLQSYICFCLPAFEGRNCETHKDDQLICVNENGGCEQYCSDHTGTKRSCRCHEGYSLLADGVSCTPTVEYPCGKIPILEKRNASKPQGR
T2 sequence (P08709 213-466 partner limits assumed): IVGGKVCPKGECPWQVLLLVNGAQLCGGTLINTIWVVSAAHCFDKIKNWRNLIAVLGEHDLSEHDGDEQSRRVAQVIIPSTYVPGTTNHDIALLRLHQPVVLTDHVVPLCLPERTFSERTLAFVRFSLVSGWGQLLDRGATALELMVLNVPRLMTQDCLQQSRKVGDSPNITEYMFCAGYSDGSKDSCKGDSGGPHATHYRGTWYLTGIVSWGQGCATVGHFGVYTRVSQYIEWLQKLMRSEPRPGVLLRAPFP
T1 sequence (P00742 235-488 limits assumed): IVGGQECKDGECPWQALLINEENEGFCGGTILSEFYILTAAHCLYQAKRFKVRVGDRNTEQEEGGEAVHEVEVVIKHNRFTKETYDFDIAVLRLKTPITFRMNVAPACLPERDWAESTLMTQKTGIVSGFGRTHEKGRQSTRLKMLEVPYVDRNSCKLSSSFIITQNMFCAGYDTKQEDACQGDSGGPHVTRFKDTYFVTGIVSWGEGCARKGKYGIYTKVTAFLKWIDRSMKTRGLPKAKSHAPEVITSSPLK
T1 sequence (P00742 41-179 limits assumed): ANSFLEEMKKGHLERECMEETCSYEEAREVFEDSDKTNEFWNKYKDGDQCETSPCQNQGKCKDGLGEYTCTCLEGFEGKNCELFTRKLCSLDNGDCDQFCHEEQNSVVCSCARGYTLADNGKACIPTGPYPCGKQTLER

Row | SMILES | inhibition of FXa activity (FXa) | inhibition of trypsin activity (trypsin) | blocking activity in standard assay for TF/VIIa-dependent factor IX activation (TF/VIIa complex) | inhibition of TF/VIIa-dependent FIX activation (TF/VIIa complex)
1 | O=P(O)(O)C(CNc1cccc(O)c1)P(=O)(O)O [Compound 1, 1-(bisphosponate)-2-amino(3-hydroxyphenyl)ethyl] | do not inhibit FXa activity | do not inhibit trypsin activity | good blocking activity | inhibit TF/VIIa-dependent FIX activation
2 | O=P(O)(O)C(CNc1ccc(O)cc1)P(=O)(O)O [Compound 2] | do not inhibit FXa activity | do not inhibit trypsin activity | good blocking activity | inhibit TF/VIIa-dependent FIX activation
